# Earlier results, collected in paper PMC7148434, “ACE-domain selectivity extends beyond direct interacting residues at the active site” (Biochemical Journal, 2020).
# Values joined by “and” are separate entries in the source; they are usually repeats but may differ in a detail not shown here. Identical values can stand only once.
# What was measured:
# nACE [1] = conditions: cited from earlier work
# cACE = cACE (Homo sapiens, UniProt P12821); design: The truncated (single domain) wild-type N-domain (nACE), wild-type C-domain (cACE) and N-domain mutant constructs; made in house; host or cells: CHO-K1; method as in Lubbe et al. [23]; conditions: ref Lubbe et al. [23]; cited from earlier work
# nACE [2] = biological target: nACE (Homo sapiens, UniProt P12821); design: The truncated (single domain) wild-type N-domain (nACE), wild-type C-domain (cACE) and N-domain mutant constructs; made in house; host or cells: CHO-K1; conditions: nACE; ref Lubbe et al. [23]; cited from earlier work
# [3] = biological target: S′-nACE (S260T, E262S, D354E, S357V, T358V and E431D) (Homo sapiens, UniProt P12821, D383E/E291S/E460D/S289T/S386V/T387V); design: The truncated (single domain) wild-type N-domain (nACE), wild-type C-domain (cACE) and N-domain mutant constructs; made in house; host or cells: CHO-K1; conditions: cited from earlier work
# [4] = biological target: S2-nACE (Y369F and R381E) (Homo sapiens, UniProt P12821, R410E/Y398F); design: The truncated (single domain) wild-type N-domain (nACE), wild-type C-domain (cACE) and N-domain mutant constructs; made in house; host or cells: CHO-K1; conditions: cited from earlier work
# [5] = biological target: S2_S′-nACE (S260T, E262S, D354E, S357V, T358V, Y369F, R381E and E431D) (Homo sapiens, UniProt P12821, D383E/E291S/E460D/R410E/S289T/S386V/T387V/Y398F); design: The truncated (single domain) wild-type N-domain (nACE), wild-type C-domain (cACE) and N-domain mutant constructs; made in house; host or cells: CHO-K1; conditions: cited from earlier work
# S2_S′-nACE (S260T, E262S, D354E, S357V, T358V, Y369F, R381E and E431D), sequence (P12821 40-624 S289T/E291S/D383E/S386V/T387V/Y398F/R410E/E460D): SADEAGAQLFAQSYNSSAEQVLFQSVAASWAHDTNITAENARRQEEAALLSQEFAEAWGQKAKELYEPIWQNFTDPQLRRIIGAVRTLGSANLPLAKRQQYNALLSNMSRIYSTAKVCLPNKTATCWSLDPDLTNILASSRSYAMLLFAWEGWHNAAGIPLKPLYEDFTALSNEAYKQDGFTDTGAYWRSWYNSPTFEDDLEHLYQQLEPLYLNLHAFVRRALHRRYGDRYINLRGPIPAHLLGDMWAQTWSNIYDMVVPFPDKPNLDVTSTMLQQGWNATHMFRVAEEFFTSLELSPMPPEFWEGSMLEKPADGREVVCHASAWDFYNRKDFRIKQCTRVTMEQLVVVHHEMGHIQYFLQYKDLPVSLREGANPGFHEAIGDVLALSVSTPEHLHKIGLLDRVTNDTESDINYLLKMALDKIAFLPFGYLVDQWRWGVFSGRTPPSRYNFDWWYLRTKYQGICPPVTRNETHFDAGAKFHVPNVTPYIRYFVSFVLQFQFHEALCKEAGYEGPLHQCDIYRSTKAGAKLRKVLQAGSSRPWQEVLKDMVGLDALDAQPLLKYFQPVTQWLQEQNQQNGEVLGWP
# S2-nACE (Y369F and R381E), sequence (P12821 40-624 Y398F/R410E): as the sequence (P12821 40-624 S289T/E291S/D383E/S386V/T387V/Y398F/R410E/E460D) above, with T250S, S252E, E344D, V347S, V348T, D421E counted along it
# S′-nACE (S260T, E262S, D354E, S357V, T358V and E431D), sequence (P12821 40-624 S289T/E291S/D383E/S386V/T387V/E460D): as the sequence (P12821 40-624 S289T/E291S/D383E/S386V/T387V/Y398F/R410E/E460D) above, with F359Y, E371R counted along it
# nACE (Homo sapiens, UniProt P12821), sequence (P12821 40-624 limits assumed): as the sequence (P12821 40-624 S289T/E291S/D383E/S386V/T387V/Y398F/R410E/E460D) above, with T250S, S252E, E344D, V347S, V348T, F359Y, E371R, D421E counted along it
# cACE, sequence (P12821 643-1222 limits assumed): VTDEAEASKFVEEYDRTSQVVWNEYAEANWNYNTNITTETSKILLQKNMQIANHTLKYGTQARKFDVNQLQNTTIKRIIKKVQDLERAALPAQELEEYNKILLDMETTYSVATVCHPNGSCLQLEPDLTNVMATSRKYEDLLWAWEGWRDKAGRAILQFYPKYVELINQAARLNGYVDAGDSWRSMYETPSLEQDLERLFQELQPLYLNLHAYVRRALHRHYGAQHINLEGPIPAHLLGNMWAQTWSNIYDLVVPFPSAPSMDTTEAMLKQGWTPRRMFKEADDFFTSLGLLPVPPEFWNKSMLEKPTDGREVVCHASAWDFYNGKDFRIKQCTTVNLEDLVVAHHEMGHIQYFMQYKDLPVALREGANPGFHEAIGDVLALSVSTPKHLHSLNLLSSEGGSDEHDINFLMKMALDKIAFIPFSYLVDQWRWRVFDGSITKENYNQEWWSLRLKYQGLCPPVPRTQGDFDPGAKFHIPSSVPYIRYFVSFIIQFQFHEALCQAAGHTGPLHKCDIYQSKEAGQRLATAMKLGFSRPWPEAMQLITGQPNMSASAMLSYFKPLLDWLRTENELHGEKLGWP
structure (smiles),measurement,setting,value
C[C@H](CP(=O)(O)[C@H](Cc1ccccc1)NC(=O)C(N)Cc1nnn[nH]1)C(=O)N[C@@H](C)C(N)=O (stereo partly drawn) [33RE],Selectivity (Ki cACE/Ki nACE or mutant),"nACE [1]; Ki cACE / Ki nACE (N-selectivity), ref Lubbe et al. [23]",1000 and 1006
same,selectivity over cACE,"nACE [1]; nACE over cACE, previous kinetic studies",~1000 fold
same,Selectivity (Ki cACE/Ki nACE or mutant),cACE,1
same,Ki,nACE [2],0.0112 ± 0.000735 µM
same,Selectivity (Ki cACE/Ki nACE or mutant),"[3]; Ki cACE / Ki S′-nACE, ref Lubbe et al. [23]",48
same,decrease in binding affinity compared with nACE,[3]; S′-nACE relative to nACE,22 fold
same,Ki,"[3]; S′-nACE, ref Lubbe et al. [23]",0.237 ± 0.0136 µM
same,Selectivity (Ki cACE/Ki nACE or mutant),"[4]; Ki cACE / Ki S2-nACE, ref Lubbe et al. [23]",4
same,decrease in binding affinity compared with nACE,[4]; S2-nACE relative to nACE,254 fold
same,Ki,"[4]; S2-nACE, ref Lubbe et al. [23]",2.79 ± 0.156 µM
same,Selectivity (Ki cACE/Ki nACE or mutant),"[5]; Ki cACE / Ki S2_S′-nACE, ref Lubbe et al. [23]",1.1
same,decrease in binding affinity compared with nACE,[5]; S2_S′-nACE relative to nACE,900 fold
